{"source": "ChEMBL document CHEMBL1132305", "about": "“Effect of aromatic short-chain analogues of ceramide on axonal growth in hippocampal neurons” (1999)", "data": [{"species": "Rattus norvegicus", "assay": "Effect on the growth of axons of hippocampal neurons stimulated by basic fibroblast growth factor (bFGF), no. of axonal branch points/cell at 51 hr upon incubation with bFGF 1.52 0.09", "format": "functional", "values": [{"smiles": "CCCC(=O)N[C@@H](CO)[C@H](O)/C=C/c1ccccc1", "No. of axonal branch points/cell": 1.38}, {"smiles": "CCCCCCC/C=C/[C@@H](O)[C@H](CO)NC(=O)CCCCC", "No. of axonal branch points/cell": 1.3}, {"smiles": "CCCCCCC/C=C/[C@H](O)[C@H](CO)NC(=O)CCCCC", "No. of axonal branch points/cell": 1.18}, {"smiles": "CC(=O)N[C@@H](CO)[C@H](O)/C=C/c1ccccc1", "No. of axonal branch points/cell": 1.3}, {"smiles": "CCCC[C@H](C)[C@@H](OC(=O)C[C@H](CC(=O)O)C(=O)O)[C@@H](C[C@H](C)C[C@@H](O)CCCC[C@@H](O)C[C@H](O)[C@H](C)N)OC(=O)C[C@H](CC(=O)O)C(=O)O", "No. of axonal branch points/cell": 1.12}, {"smiles": "CCCCCCC/C=C/[C@@H](O)[C@H](CO)NC(C)=O", "No. of axonal branch points/cell": 1.5}, {"smiles": "CCCCCC(=O)N[C@@H](CO)[C@@H](O)/C=C/c1ccccc1", "No. of axonal branch points/cell": 1.22}, {"smiles": "CCCCCCCC(=O)N[C@@H](CO)[C@H](O)/C=C/c1ccccc1", "No. of axonal branch points/cell": 1.4}, {"smiles": "CCCCCC(=O)N[C@@H](CO)[C@H](O)/C=C/c1ccccc1", "No. of axonal branch points/cell": 1.45}]}]}
